Laboratory results taken from PMC11060137, “A Phase I Study of KIN-3248, an Irreversible Small-molecule Pan-FGFR Inhibitor, in Patients with Advanced FGFR2/3-driven Solid Tumors” (Cancer Research Communications, 2024).
Where two headings read alike, the source gives them in different places.

Columns and labels:
[1] = system: patients with advanced solid tumors harboring FGFR2 and/or FGFR3 gene alterations
Experimental: The study was divided into two parts. […] The secondary objectives included antitumor activity in Part A, determination of pharmacokinetics and pharmacodynamics.
Dose level 1 was started at 5 mg oral daily, and patients were escalated on study to 50 mg daily. On the basis of ongoing efficacy, toxicity, and pharmacokinetic analysis, a planned amendment added additional cohorts up to 80 mg orally daily to define the MTD/RP2D. […] One cycle was 28 days of continuous dosing. Intrapatient dose escalation after safely tolerating two cycles was allowed if per protocol criteria were met. Patients continued therapy until evidence of disease progression, intolerance or unacceptable toxicity, withdrawal of consent, investigator decision, sponsor decision, or death.
Patients were evaluated with medical history, physical examinations, and clinical laboratory on days 1, 8, 15, and 22 of cycle 1; days 1 and 15 from cycle 2 through cycle 5; and day 1 of each subsequent cycle. […] Except for hyperphosphatemia, adverse events (AE) were graded according to the NCI-CTCAE (Common Terminology Criteria for Adverse Events) Version 5.0 at each study visit and for approximately 30 days following end of treatment.
The primary endpoints for the overall study, included: the incidence of DLTs, incidence of AEs, treatment-emergent AEs (TEAE), and treatment-related AEs (TRAE).

[2] = system: molecular break (N549H) resistance mutation; design: method as in PMID 38267212; settings: cited from earlier work
[3] = system: advanced solid tumors harboring FGFR2 and/or FGFR3 gene alterations; assay: Antitumor activity by RECIST v1.1; type: in vivo, human
[4] = system: serum phosphate; assay: Serum phosphate as pharmacodynamic biomarker; type: in vivo, human
Experimental: (§1) As FGFR1 is expressed in renal tubules and pharmacologic inhibition of FGFR1 leads to phosphate retention ([18]), serum phosphate levels were measured at each study visit as a pharmacodynamic biomarker. Paired pretreatment and on-treatment biopsies (cycle 1 day 8 to day 21) were collected and analyzed for phospho-ERK and total ERK by IHC. DUSP6 gene expression was measured in tumor samples using RNA ISH (RNAscope; probes from Advanced Cell Diagnostics).

[5] = system: gatekeeper (V564F) resistance mutation; design: method as in PMID 38267212; settings: cited from earlier work
[6] = Plasma pharmacokinetics in patients (LC/MS-MS, noncompartmental); type: in vivo, human
Experimental: Blood for pharmacokinetic analysis was collected C1D1 (pretreatment and postdose at 0.25, 0.5, 1, 2, 4, 6, 8, 10 hours), […] (pretreatment, postdose at 1 and 2 hours), C1D8 and day 15 (pretreatment, postdose 1 hour), C2D1 (pretreatment, postdose at 0.25, 0.5, 1, 2, 4, 6, 8, 10 hours), and pretreatment and 1 hour postdose on day 1 of C3, C4 and cycle 5. KIN-3248 concentration was determined at each timepoint by an established and validated LC/MS-MS assay.

[7] = system: wild-type FGFR; design: method as in PMID 38267212; settings: cited from earlier work
[8] = system: phospho-ERK; assay: Phospho-ERK relative to total ERK by IHC in paired biopsies; type: in vivo, human
Experimental: as §1

[9] = system: FGFR2/3-driven cholangiocarcinoma, gastric, and bladder cancer xenograft models; design: method as in PMID 38267212; settings: cited from earlier work

## C=CC(=O)N1C[C@@H](n2nc(C#Cc3c(F)cc4c(ncn4C4CC4)c3F)c(C(N)=O)c2NC)C[C@@H]1COC [KIN-3248]
[1]; CTCAE (V5) Grade 3, N = 54
  TEAE Respiratory, thoracic, and mediastinal disorders, n (%): 1 (1.9%)
  TEAE Skin and subcutaneous tissue disorders, n (%): 0
  TEAE Stomatitis, n (%): 0
  TEAE Vascular disorders, n (%): 3 (5.6%)
[1]; CTCAE (V5) Grade 4–5, N = 54
  Patient with any TEAE, n (%): 7 (13.0%)
  TEAE Alanine aminotransferase increased, n (%): 0
  TEAE Anemia, n (%): 0
  TEAE Aspartate aminotransferase increased, n (%): 0
  TEAE Blood and lymphatic system disorders, n (%): 0
  TEAE Blood creatinine increased, n (%): 0
  TEAE Constipation, n (%): 0
  TEAE Decreased appetite, n (%): 0
  TEAE Diarrhea, n (%): 0
  TEAE Dry mouth, n (%): 0
  TEAE Eye disorders, n (%): 0
  TEAE Fatigue, n (%): 0
  TEAE Gastrointestinal disorders, n (%): 0
  TEAE General disorders and administration site conditions, n (%): 1 (1.9%)
  TEAE Hypercalcemia, n (%): 0
  TEAE Hyperphosphatemia, n (%): 0
  TEAE Infections and infestations, n (%): 2 (3.7%)
  TEAE Investigations, n (%): 2 (3.7%)
  TEAE Metabolism and nutrition disorders, n (%): 0
  TEAE Musculoskeletal and connective tissue disorders, n (%): 0
  TEAE Nausea, n (%): 0
  TEAE Nervous system disorders, n (%): 1 (1.9%)
  TEAE Psychiatric disorders, n (%): 0
  TEAE Respiratory, thoracic, and mediastinal disorders, n (%): 1 (1.9%)
  TEAE Skin and subcutaneous tissue disorders, n (%): 0
  TEAE Stomatitis, n (%): 0
  TEAE Vascular disorders, n (%): 0
[1]; doses up to 50 mg orally daily
  MTD: not reached
[1]; in vivo
  Treatment-related deaths: no treatment-related deaths
[1]; only event reported in more than 1 patient
  Treatment-related grade 3 hyperphosphatasemia: 14.8%
[1]; three related to progressive disease, one to a cardiovascular accident
  TEAE deaths: Four
[2]
  IC50: low nanomolar
[3]; 3 patients
  Best response in pretreated ICC patients with FGFR2 kinase domain resistance mutations: progressive disease
[3]; 5 patients
  Response in FGFR2/3 fusion patients: 20%
[3]; 54 patients
  ORR: 9.25%
[3]; of 4 patients, gastric cancer
  Responders among FGFR inhibitor pretreated patients with acquired FGFR resistance mutations in ctDNA: 1
[3]; of 23 patients
  Confirmed responders among FGFR inhibitor experienced patients: 1
[3]; of 31 patients
  Confirmed responders among FGFR inhibitor naïve patients: 3
  Responders among FGFR inhibitor naïve patients: 4
[3]; of 54 patients enrolled
  Patients achieving CR: none
  Patients achieving PR: 5
[3]; total population
  DCR: 46%
[3]; twenty patients
  Patients achieving SD: 37.0%
[4]; 54 participants
  Serum phosphate versus dose and exposure: increased with dose and exposure
[4]; all dose levels
  Onset of serum phosphate elevations: within the f irst week
[5]
  IC50: low nanomolar
[6]; 5-50 mg
  Exposure versus dose: generally dose proportional
[6]; exploratory analysis
  Concentrations in Asian (China, Taiwan, Korean) versus non-Asian patients: not a qualitative difference
[6]; first two cycles
  Accumulation: not observed
[6]; human, in vivo
  Apparent clearance (CL/F): 23,300-32,100 mL/hour
  Steady-state geometric mean half-life (t1/2): approximately 4 hours
  Volume of distribution (V/F): 135,000-200,000 mL
[7]
  IC50: low nanomolar
[8]; eleven paired biopsy samples, IHC
  Phospho-ERK relative to total-ERK: trend toward reduction
[8]; paired pretreatment and on-treatment biopsies
  Samples tested with a reduction in p-ERK: 50%
[9]
  Tumor inhibition: dose-dependent tumor inhibition
